≈ marks a conversion by molar mass, not a printed value.
Assays:
[1] = previously reported; ref 14b; cited from earlier work
[2] = test system: monocytes, MSCs, or mature osteoclasts; conditions: even at a concentration of 10 μM; ref manuscript submitted; cited from earlier work
[3] = ref 14b, cited from earlier work
[4] = test system: osteoclastogenesis; assay: In vitro osteoclast differentiation assay; format: cell-based, mice; conditions: 10 μM inhibitor, rM-CSF and RANKL, 5–7 d
[5] = previously reported; ref 14b; cited from earlier work; remark: listed apart in the source
[6] = previously reported; ref 14b; cited from earlier work; remark: listed apart in the source
[7] = test system: MDA-MB-231 breast cancer xenograft; conditions: cited from earlier work
[8] = cited from earlier work

Compound | Mouse microsome half-life [1] [min] | Toxicity towards monocytes, MSCs, or mature osteoclasts [2] | Solubility ([3]; converted from […] with MW 499.17 g/mol) [µg/mL] | Solubility class in words ([3]; poor defined as <10 μg/mL or <20 μM) | Osteoclastogenesis level compared with control [4] [%] | Human microsome half-life [5] [min] | Rat microsome half-life [6] [min] | MDA-MB-231 breast cancer xenograft growth [7] | Osteolytic damage ([7]; in vivo prevention study) | Creatine kinase (measure of muscle toxicity) [8]
CNC(=O)[C@@H](NC(=O)c1ccc(-c2ccc(CSc3nc4c(c(=O)[nH]3)CCC4)c(F)c2)o1)C(C)C [RF036] | 20 | not due to the compound being toxic | 7.74 (≈ 15.5 µM) | poor solubility | 24 | 12 | 9 | – | – | –
COCCC1(Oc2ccc(Oc3ccc(-c4nc(-c5ccc(F)cc5)co4)cc3)cc2)C(=O)NC(=O)NC1=O [compound 28, 5-(4-{4-[4-(4-fluorophenyl)-1,3-oxazol-2-yl]phenoxy}phenoxy)-5-(2-methoxyethyl)-pyrimidine-2,4,6 (1H,3H,5H)-trione] | – | – | – | – | – | – | – | inhibited MDA-MB-231 breast cancer xenograft growth | significantly reduced osteolytic damage | did not cause an increase in creatine kinase
